According to ChEMBL document CHEMBL5226361, “Marine Sponge-Derived Alkaloid Induces Mitochondrial Dysfunction and Inhibits the PI3K/AKT/mTOR Signaling Pathway against Burkitt's Lymphoma” (J Nat Prod, 2023):
Calls of active or inactive are those of the source. No cut-off for these calls is given here.

Experiments:
[1] = test system: Raji; test: Induction of apoptosis in human Raji cells assessed as necrotic cells at 5 uM incubated for 24 hrs in the presence of YS49 by Annexin V-FITC/PI staining based flow cytometric analysis (reference value: 1.5%); assay type: functional
[2] = test system: Daudi; test: Induction of apoptosis in human Daudi cells assessed as upregulation of cytochrome C expression at 0.75 to 3 uM incubated for 24 hrs by Western blot analysis; assay type: functional, cell-based; details: dose 0.75-3 µM
[3] = test system: Raji; test: Induction of apoptosis in human Raji cells assessed as nuclear fragmentation incubated for 48 hrs by Hoechst 33258/PI staining based fluorescence microscopic analysis; assay type: functional, cell-based; details: dose 1.25-5 µM
[4] = test system: Daudi; test: Induction of cell cycle arrest at G0/G1 phase in human Daudi cells assessed as downregulation of CDK4 protein expression at 0.75 to 3 uM incubated for 24 to 48 hrs by Western blot analysis; assay type: functional, cell-based; details: dose 0.75-3 µM, time 24-48 hrs
[5] = test system: Raji; test: Induction of apoptosis in human Raji cells assessed as effect on Bax protein expression at 1.25 to 5 uM incubated for 24 hrs by Western blot analysis; assay type: functional, cell-based; details: dose 1.25-5 µM
[6] = test system: Raji; test: Induction of apoptosis in human Raji cells assessed as late apoptotic cells at 5 uM incubated for 24 hrs by Annexin V-FITC/PI staining based flow cytometric analysis (reference value: 0.0%); assay type: functional
[7] = test system: Daudi; test: Induction of apoptosis in human Daudi cells assessed as effect on Bax protein expression at 0.75 to 3 uM incubated for 24 hrs by Western blot analysis; assay type: functional, cell-based; details: dose 0.75-3 µM
[8] = test system: Raji; test: Induction of mitochondrial dysfunction in human Raji cells assessed as decrease in ATP-5H protein expression at 2.5 to 5 uM incubated for 48 hrs by Western blot analysis; assay type: functional, cell-based; details: dose 2.5-5 µM
[9] = Inhibition of PI3K/AKT/mTOR signalling pathway in human Raji cells assessed as inhibition of PI3K phosphorylation incubated for 24 hrs by Western blot analysis; assay type: cell-based; details: dose 1.25-5 µM
[10] = test system: Raji; test: Induction of mitochondrial oxidative damage in human Raji cells assessed as increase in intracellular mitochondrial superoxide generation at 5 uM incubated for 1 to 6 hrs by MitoSOX red dye based flow cytometric analysis; assay type: functional, cell-based; details: time 1-6 hrs
[11] = Inhibition of PI3K/AKT/mTOR signalling pathway in human Raji cells assessed as inhibition of AKT phosphorylation at […] residue incubated for 24 hrs by Western blot analysis; assay type: cell-based; details: dose 1.25-5 µM
[12] = test system: Daudi; test: Induction of apoptosis in human Daudi cells assessed as necrotic cells at 3 uM incubated for 24 hrs in the presence of YS49 by Annexin V-FITC/PI staining based flow cytometric analysis (reference value: 1.0%); assay type: functional
[13] = test system: Daudi; test: Effect on total PI3K protein level in human Daudi cells at 0.75 to 3 uM incubated for 24 hrs by Western blot analysis; assay type: functional, cell-based; details: dose 0.75-3 µM
[14] = test system: Raji; test: Induction of apoptosis in human Raji cells assessed as downregulation of Mcl-1 expression at 1.25 to 5 uM incubated for 24 hrs by Western blot analysis; assay type: functional, cell-based; details: dose 1.25-5 µM
[15] = test system: Raji; test: Induction of mitochondrial respiratory chain damage in human Raji cells assessed as decrease in SDHA protein expression at 2.5 to 5 uM incubated for 48 hrs by Western blot analysis; assay type: functional, cell-based; details: dose 2.5-5 µM
[16] = test system: Raji; test: Induction of apoptosis in human Raji cells assessed as total apoptotic cells at 5 uM incubated for 48 hrs by Annexin-V/PI staining based flow cytometric analysis relative to control; assay type: functional
[17] = test system: Daudi; test: Induction of cell cycle arrest at G0/G1 phase in human Daudi cells assessed as upregulation of p21 protein expression at 0.75 to 3 uM incubated for 24 to 48 hrs by Western blot analysis; assay type: functional, cell-based; details: dose 0.75-3 µM, time 24-48 hrs
[18] = test system: Raji; test: Induction of cell cycle arrest in human Raji cells assessed as accumulation of cells at G0/G1 phase at 5 uM incubated for 48 hrs by PI staining based flow cytometry analysis (reference value: 20.16%); assay type: functional
[19] = test system: Raji; test: Induction of apoptosis in human Raji cells assessed as viable cells at 5 uM incubated for 24 hrs in the presence of YS49 by Annexin V-FITC/PI staining based flow cytometric analysis (reference value: 97.8%); assay type: functional; details: read-out: Activity
[20] = test system: Raji; test: Induction of apoptosis in human Raji cells assessed as nuclear condensation incubated for 48 hrs by Hoechst 33258/PI staining based fluorescence microscopic analysis; assay type: functional, cell-based; details: dose 1.25-5 µM
[21] = test system: Daudi; test: Induction of mitochondrial dysfunction in human Daudi cells assessed as decrease in ATP content incubated for 24 hrs by CellTiter-Lumi […] assay; assay type: functional, cell-based; details: dose 0.75-3 µM
[22] = test system: Daudi; test: Induction of apoptosis in human Daudi cells assessed as upregulation of cleaved PARP expression at 0.75 to 3 uM incubated for 24 hrs by Western blot analysis; assay type: functional, cell-based; details: dose 0.75-3 µM
[23] = test system: Daudi; test: Induction of apoptosis in human Daudi cells assessed as upregulation of cleaved caspase-9 expression at 0.75 to 3 uM incubated for 24 hrs by Western blot analysis; assay type: functional, cell-based; details: dose 0.75-3 µM
[24] = Inhibition of PI3K/AKT/mTOR signalling pathway in human Daudi cells assessed as increase in ratio of AKT phosphorylation at […] residue to total AKT protein level at 3 uM incubated for 12 hrs in the presence of YS49 by Western blot analysis; assay type: cell-based
[25] = test system: Raji; test: Induction of mitochondrial dysfunction in human Raji cells assessed as decrease in ATP content incubated for 24 hrs by CellTiter-Lumi […] assay; assay type: functional, cell-based; details: dose 1.25-5 µM
[26] = test system: Raji; test: Induction of cell cycle arrest at G0/G1 phase in human Raji cells assessed as downregulation of CDK4 protein expression at 1.25 to 5 uM incubated for 24 to 48 hrs by Western blot analysis; assay type: functional, cell-based; details: dose 1.25-5 µM, time 24-48 hrs
[27] = test system: Raji; test: Induction of apoptosis in human Raji cells assessed as effect on cleaved caspase-8 protein expression at 1.25 to 5 uM incubated for 24 hrs by Western blot analysis; assay type: functional, cell-based; details: dose 1.25-5 µM
[28] = test system: Daudi; test: Induction of apoptosis in human Daudi cells assessed as late apoptotic cells at 3 uM incubated for 24 hrs in the presence of YS49 by Annexin V-FITC/PI staining based flow cytometric analysis (reference value: 0.0%); assay type: functional
[29] = test system: Raji; test: Effect on total AKT protein level in human Raji cells at 1.25 to 5 uM incubated for 24 hrs by Western blot analysis; assay type: functional, cell-based; details: dose 1.25-5 µM
[30] = test system: Daudi; test: Induction of mitochondrial dysfunction in human Daudi cells assessed as decrease in ATP-5H protein expression at 1.5 to 3 uM incubated for 48 hrs by Western blot analysis; assay type: functional, cell-based; details: dose 1.5-3 µM
[31] = test system: Daudi; test: Induction of apoptosis in human Daudi cells assessed as nuclear condensation incubated for 24 hrs by Hoechst 33258/PI staining based fluorescence microscopic analysis; assay type: functional, cell-based; details: dose 0.75-3 µM
[32] = test system: Daudi; test: Induction of mitochondrial respiratory chain damage in human Daudi cells assessed as decrease in NDUFV2 protein expression at 1.5 to 3 uM incubated for 48 hrs by Western blot analysis; assay type: functional, cell-based; details: dose 1.5-3 µM
[33] = test system: Daudi; test: Induction of cell cycle arrest at G0/G1 phase in human Daudi cells assessed as downregulation of Cyclin E1 protein expression at 0.75 to 3 uM incubated for 24 to 48 hrs by Western blot analysis; assay type: functional, cell-based; details: dose 0.75-3 µM, time 24-48 hrs
[34] = test system: Raji; test: Induction of cell cycle arrest at G0/G1 phase in human Raji cells assessed as downregulation of CyclinE1 protein expression at 1.25 to 5 uM incubated for 24 to 48 hrs by Western blot analysis; assay type: functional, cell-based; details: dose 1.25-5 µM, time 24-48 hrs
[35] = Inhibition of PI3K/AKT/mTOR signalling pathway in human Raji cells assessed as increase in ratio of PI3K phosphorylation to total PI3K protein level at 5 uM incubated for 12 hrs in the presence of YS49 by Western blot analysis; assay type: cell-based

COc1c(OC)c2c3c(nccc3c1-c1cc(C)cc(C)c1)C(c1cc(C)cc(C)c1)=CN2
Activity [1]: 20.8%
Activity [2]: Active
Activity [3]: Dose-Dependent Effect
Activity [4]: Active
Activity [5]: inactive
Activity [6]: 4.2%
Activity [7]: inactive
Activity [8]: Active
inhibition [9]: Dose-Dependent Effect
Activity [10]: Active
inhibition [11]: Dose-Dependent Effect
Activity [12]: 1.7%
Activity [13]: inactive
Activity [14]: Active
Activity [15]: Active
Activity [16]: 25.8%
Activity [17]: Active
Activity [18]: 40.65%
viability at 5 µM [19]: 67%
Activity [20]: Dose-Dependent Effect
Activity [21]: Dose-Dependent Effect
Activity [22]: Active
Activity [23]: Active
inhibition [24]: inactive
Activity [25]: Dose-Dependent Effect
Activity [26]: Active
Activity [27]: inactive
Activity [28]: 1.5%
Activity [29]: inactive
Activity [30]: Active
Activity [31]: Dose-Dependent Effect
Activity [32]: Active
Activity [33]: Active
Activity [34]: Active
inhibition [35]: inactive
